Results on 18 compounds are retold here after US10047087B2, “Substituted pyrazolo[1,5-A] pyridine as tropomyosin receptor kinase (TrK) inhibitors” (Dr. Reddy's Laboratories Ltd., priority 2011, dated 2018).

Like-named read-outs stand apart in the source and are kept apart here. Some results are limits rather than exact numbers.

This assay deals with T1, TrkA kinase (Homo sapiens, UniProt P04629).
T1 construct: purchased Upstate, USA
As to the kind of experiment: In vitro TrkA inhibitory activity using TR-FRET assay. In kind it is biochemical. To be noted: 5 ng TrkA, 500 μM ATP. On the procedure: Determination of In Vitro TrkA Inhibitory Activity Using TR-FRET Assay
Compounds were screened in the TR-FRET assay with TrkA kinase. 5 ng of TrkA [Upstate, USA] kinase was used for assay. The compound was incubated with the kinase for 30 minutes at 20-35° C. After the incubation, substrate mix [40 nM Ultra light poly GT (Perkin Elmer, USA) and 500 μM ATP] was added. The above reaction was stopped by the addition of 40 mM EDTA after 30 minutes. The Eu-labelled antiphospho-tyrosine antibody [Perkin Elmer, USA] was added at 0.5 nM and the fluorescence emission at 615 nm/665 nm [excitation at 340 nm] was measured. The compounds were initially screened at 100 nM, 1 μM and 10 μM concentrations. The potent compounds with >25% inhibition at 1 μM of TrkA were taken for the full dose response studies. The final DMSO concentration in the assay was […]. For IC50 determination, ⅓^rd serial dilution was made from the 20 mM DMSO stock solution. 2 μl of these were transferred to the test wells containing 20 μl reaction mixture [Total reaction volume 22 μl]. The fluorescence was measured in Perkin Elmer Wallac 1420 Multilabel Counter Victor 3. The IC50 was determined by fitting the dose response data to a sigmoidal curve fitting equation using GraphPad Prism software version 5.

[1] abbreviates: read-out: TrkA inhibition in-vitro IC50.
[2] abbreviates: both bounds given in nm, read-out: TrkA inhibitory activity in-vitro IC50.
Where [3] appears, read: read-out: TrkA inhibitory activity in-vitro IC50.

T1 sequence (P04629 33-796): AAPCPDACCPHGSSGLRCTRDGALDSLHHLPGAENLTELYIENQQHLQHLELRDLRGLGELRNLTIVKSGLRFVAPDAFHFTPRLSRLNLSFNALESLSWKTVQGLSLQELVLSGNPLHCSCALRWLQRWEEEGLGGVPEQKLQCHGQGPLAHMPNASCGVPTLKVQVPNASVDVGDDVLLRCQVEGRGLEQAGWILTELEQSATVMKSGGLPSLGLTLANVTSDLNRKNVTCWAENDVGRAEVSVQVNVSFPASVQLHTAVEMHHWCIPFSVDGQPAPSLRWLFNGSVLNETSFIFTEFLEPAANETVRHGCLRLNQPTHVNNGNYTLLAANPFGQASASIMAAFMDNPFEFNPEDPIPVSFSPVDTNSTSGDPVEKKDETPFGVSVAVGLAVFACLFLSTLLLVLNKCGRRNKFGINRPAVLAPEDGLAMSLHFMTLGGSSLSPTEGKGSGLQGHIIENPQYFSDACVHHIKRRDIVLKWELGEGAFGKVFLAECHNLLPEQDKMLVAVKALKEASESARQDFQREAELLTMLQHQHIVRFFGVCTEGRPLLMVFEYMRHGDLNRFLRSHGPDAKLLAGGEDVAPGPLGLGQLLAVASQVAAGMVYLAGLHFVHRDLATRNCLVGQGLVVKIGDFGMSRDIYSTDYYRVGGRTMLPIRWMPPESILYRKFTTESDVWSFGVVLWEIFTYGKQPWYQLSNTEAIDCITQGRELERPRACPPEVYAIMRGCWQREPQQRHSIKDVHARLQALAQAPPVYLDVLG

In general, IC50 refers to the concentration that gives 50% inhibition. With `CCN(C)S(=O)(=O)NC(=O)c1cnn2ccc(N3CCC[C@@H]3c3cc(F)ccc3OC3CCOC3)cc12` (stereo partly drawn) [Example 139, Sodium (N-ethyl-N-methylsulfamoyl)(5-((2R)-2-(5-fluoro-2-((tetrahydrofuran-3-yl)oxy)phenyl)pyrrolidin-1-yl)pyrazolo[1,5-a]pyridine-3-carbonyl)amide], the IC50 under setting [1] is not above 50 nM.

On to `O=C(NS(=O)(=O)c1ccc(N2CC[C@H](O)C2)cc1)c1cnn2ccc(N3CCC[C@@H]3c3cc(F)cc(F)c3)cc12` [Example 70, 5-((R)-2-(3,5-difluorophenyl)pyrrolidin-1-yl)-N-((4-((S)-3-hydroxypyrrolidin-1-yl)phenyl)sulfonyl)pyrazolo[1,5-a] pyridine-3-carboxamide], for which the IC50 under setting [1] was not above 50 nM.

Take `CC(C)(C)S(=O)(=O)NC(=O)c1cnn2ccc(N3CCC[C@@H]3c3cc(F)ccc3-c3ccc(F)cc3)cc12` [Example 54, (R)-N-(tert-butylsulfonyl)-5-(2-(4,4′-difluoro-[1,1′-biphenyl]-2-yl)pyrrolidin-l-yl)pyrazolo[1,5-a]pyridine-3-carboxamide]: under setting [2], the IC50 was in the range of 100 to 500 nM.

For `CC(C)CS(=O)(=O)NC(=O)c1cnn2ccc(N3CCC[C@@H]3c3cc(F)ccc3F)cc12` [Example 14, (R)-5-(2-(2,5-difluorophenyl)pyrrolidin-1-yl)-N-(isobutylsulfonyl)pyrazolo[1,5-a] pyridine-3-carboxamide], under setting [2], the IC50 is 100 to 500 nM.

For `CC(C)(C)S(=O)(=O)NC(=O)c1cnn2ccc(N3CC(F)C[C@@H]3c3cc(F)ccc3F)cc12` (stereo partly drawn) [Example 135, Sodium (tert-butylsulfonyl)(5-((2R)-2-(2,5-difluorophenyl)-4-fluoropyrrolidin-1-yl)pyrazolo[1,5-a]pyridine-3-carbonyl)amide], the half-maximal inhibitory concentration (IC50) under setting [3] was 1000 to 10000 nM.

As to `CC(C)(C)S(=O)(=O)NC(=O)c1cnn2ccc(N3CCCC3c3cc(F)cc4c3OCCO4)cc12` (single isomer, unassigned) [Example 51, N-(tert-butylsulfonyl)-5-(2-(7-fluoro-2,3-dihydrobenzo [b][1,4]dioxin-5-yl)pyrrolidin-1-yl)pyrazolo[1,5-a]pyridine-3-carboxamide], the concentration for half-maximal inhibition (IC50) under setting [3] fell in the range of 1000 to 10000 nM.

As for `Cn1cc(S(=O)(=O)NC(=O)c2cnn3ccc(N4CCC[C@@H]4c4cc(F)ccc4F)cc23)cn1` [Example 28, (R)-5-(2-(2,5-difluorophenyl)pyrrolidin-1-yl)-N-((1-methyl-1H-pyrazol-4-yl)sulfonyl) pyrazolo[1,5-a]pyridine-3-carboxamide], under setting [2], the 50% inhibitory concentration (IC50) is 100 to 500 nM.

`CC(C)(C)S(=O)(=O)NC(=O)c1cnn2ccc(N3CCC[C@@H]3c3cc(F)cc(F)c3)cc12` [Example 66, (R)-N-(tert-butylsulfonyl)-5-(2-(3,5-difluorophenyl)pyrrolidin-1-yl)pyrazolo[1,5-a]pyridine-3-carboxamide]: the IC50 under setting [2] fell in the range of 100 to 500 nM.

With `O=C(NS(=O)(=O)N1CC[C@H](O)C1)c1cnn2ccc(N3CCC[C@@H]3c3cc(F)ccc3F)cc12` [Example 93, 5-((R)-2-(2,5-difluorophenyl)pyrrolidin-1-yl)-N-(((S)-3-hydroxypyrrolidin-1-yl)sulfonyl)pyrazolo[1,5-a] pyridine-3-carboxamide], the IC50 under setting [2] was in the range of 100 to 500 nM.

Regarding `CN(C)S(=O)(=O)NC(=O)c1cnn2ccc(N3CCC[C@@H]3c3cccc(F)c3)c(F)c12` [Example 138, Sodium (R)-(N,N-dimethylsulfamoyl)(4-fluoro-5-(2-(3-fluorophenyl)pyrrolidin-1-yl)pyrazolo[1,5-a]pyridine-3-carbonyl)amide], the IC50 under setting [1] was not above 50 nM.

In the case of `CC(C)(C)S(=O)(=O)NC(=O)c1cnn2ccc(N3CC(F)(F)CC3c3cc(F)ccc3F)cc12` (single isomer, unassigned) [Example 56], the IC50 under setting [2] lay within 100 to 500 nM.

As for `Cc1ccccc1S(=O)(=O)NC(=O)c1cnn2ccc(N3CCC[C@@H]3c3cc(F)ccc3F)cc12` [Example 140, Sodium (R)-(5-(2-(2,5-difluorophenyl)pyrrolidin-1-yl)pyrazolo[1,5-a]pyridine-3-carbonyl)(o-tolylsulfonyl)amide], under setting [1], the 50% inhibitory concentration (IC50) was not above 50 nM.

With `CC(C)(C)S(=O)(=O)NC(=O)c1cnn2ccc(N3CC(F)(F)CC3c3cc(F)ccc3F)cc12` (stereo not drawn) [Example 133, Sodium (tert-butylsulfonyl)(5-(2-(2,5-difluorophenyl)-4,4-difluoropyrrolidin-1-yl)pyrazolo[1,5-a]pyridine-3-carbonyl)amide], the IC50 under setting [2] was 100 to 500 nM.

As to `CCC1(S(=O)(=O)NC(=O)c2cnn3ccc(N4CCC[C@@H]4c4cc(F)ccc4F)cc23)CC1` [Example 36, (R)-5-(2-(2,5-difluorophenyl)pyrrolidin-1-yl)-N-((1-ethylcyclopropyl)sulfonyl) pyrazolo[1,5-a]pyridine-3-carboxamide], the IC50 under setting [2] fell in the range of 100 to 500 nM.

With `O=C(NS(=O)(=O)c1ccc2c(c1)OCCO2)c1cnn2ccc(N3CCC[C@@H]3c3cc(F)ccc3F)cc12` [Example 34, (R)-5-(2-(2,5-difluorophenyl)pyrrolidin-1-yl)-N-((2,3-dihydrobenzo[b][1,4]dioxin-6-yl)sulfonyl)pyrazolo [1,5-a]pyridine-3-carboxamide], under setting [1], the 50% inhibitory concentration (IC50) was 50 to 100 nM.

Take `O=C(NS(=O)(=O)c1cc(Cl)sc1Cl)c1cnn2ccc(N3CCC[C@@H]3c3cc(F)ccc3F)cc12` [Example 32, (R)-N-((2,5-dichlorothiophen-3-yl)sulfonyl)-5-(2-(2,5-difluorophenyl)pyrrolidin-1-yl) pyrazolo[1,5-a]pyridine-3-carboxamide]: the half-inhibitory concentration (IC50) under setting [2] was 100 to 500 nM.

For the compound `CC(C)(C)S(=O)(=O)NC(=O)c1cnn2ccc(N3CCC[C@@H]3c3cc(F)ccc3Cl)cc12` [Example 47, (R)-N-(tert-butylsulfonyl)-5-(2-(2-chloro-5-fluorophenyl)pyrrolidin-1-yl)pyrazolo[1,5-a]pyridine-3-carboxamide], the IC50 under setting [1] fell in the range of 50 to 100 nM.

As for `CCN(C)S(=O)(=O)NC(=O)c1cnn2ccc(N3CCC[C@@H]3c3cc(F)cc(F)c3OC)cc12` [Example 90, (R)-5-(2-(3,5-difluoro-2-methoxyphenyl)pyrrolidin-1-yl)-N-(N-ethyl-N-methylsulfamoyl) pyrazolo[1,5-a]pyridine-3-carboxamide], the IC50 under setting [1] is not above 50 nM.
